According to ChEMBL document CHEMBL4699523, “Predicting the Human Hepatic Clearance of Acidic and Zwitterionic Drugs” (J Med Chem, 2020):

Legend:
[1] = Ratio of drug level in cynomolgus monkey blood to plasma administered through oral dosing by LC-MS/MS analysis; type: ADME, cell-free, Macaca fascicularis; conditions: blood and plasma
[2] = Ratio of drug level in human blood to plasma administered through oral dosing by LC-MS/MS analysis; type: ADME, cell-free; conditions: blood and plasma
[3] = Hepatic clearance in human administered through oral dosing; type: ADME
[4] = physchem
[5] = physchem; conditions: buffer, pH 7.4
[6] = Hepatic clearance in cynomolgus monkey administered through oral dosing; type: ADME, Macaca fascicularis; conditions: in vivo
[7] = physchem; remark: listed apart in the source
[8] = in vitro; conditions: dog, MDCK, pH 7.4
Description: Apparent permeability in dog MDCKII-LE cells at pH 7.4

[9] = in vitro; conditions: human, plasma
Description: Fraction unbound in human plasma

[10] = in vitro; conditions: cynomolgus monkey, plasma
Description: Fraction unbound in cynomolgus monkey plasma

[11] = in vitro; conditions: human, cryopreserved hepatocytes

## O=C(O)[C@@H]1CCC[C@H]1C(=O)c1ccc(-c2ccc(Nc3nc4ccc(F)cc4s3)c(F)c2)cc1
[1]
  blood plasma ratio: 0.617
[2]
  blood plasma ratio: 0.653
[3]
  CLH: 0.59 mL/min/kg
[4]
  pKa at 0.3 h: 2.4
[5]
  logD: > 3.5
[6]
  CLH: 2 mL/min/kg
[7]
  pKa at 0.3 h: 4.7
[8]
  Papp: 2.3 ×10⁻⁶ cm/s
[9]
  fraction unbound: 0.00086
[10]
  fraction unbound: 0.0014
[11]
  CLint scaled at 2 h, 1 µM: 201 mL/min/kg
